This is an account of results in patent US20250375453A1, “HIGH-EFFICIENCY ANTIMICROBIAL COMPOSITION” (CM4CURE S.A., priority 2023, published 2025).

For data set [1], the system named is Vancomycin-resistant Enterococcus faecalis (VRE, ATCC BAA-2573). The data set can be described thus: Synergy checkerboard assay / broth micro-dilution MIC (ISO 20776-1 with modifications). The format is cell-based. As to the method: • 1. Preparation of the inoculum of Vancomycin-resistant Enterococcus faecalis (VRE, ATCC BAA-2573). Inoculum is prepared by suspension of 1 colony of bacteria (medium size colony from Tryptic Soy agar plate) in 3 ml of Tryptic Soy broth (TSB) using a 200 μL tip. The solution is mixed by vortexing and incubated at 37° C. overnight (19-24 hours) under shaking at 200 rpm. • 2. Preparation of the Antimicrobial dilution on the day of the experiment. Stock solutions are performed with distilled water for all antimicrobial compound except for Fluometacyl (ethanol). Dilution for each condition is made in Mueller-Hinton broth (NMB). 50p of APIs dilution is added to wells of a 96 wells microplate (each condition in duplicate-triplicate). • Antimicrobial compounds were prepared as follows: • Fluometacyl (F) (4 mg/mL in 100% EtOH) served as a master stock. To obtain the final concentration of 40 μg/ml in the bacterial suspension, initial stock of 160 μg/ml in Mueller-Hinton broth (MHB) was prepared and further 2-fold diluted using the following serial dilution scheme: • (1): 40 μg/ml (160 μg/ml, prepared in MHB) • (2): 20 μg/ml (80 μg/ml, dilution in MHB) • (3): 10 μg/ml (40 μg/ml, dilution in MHB) • (4): 5 μg/ml (20 μg/ml, dilution in MHB) • (5): 2.5 μg/ml (10 μg/ml, dilution in MHB) • (6): 1.25 μg/ml (5 μg/ml, dilution in MHB) • Chlorhexidine acetate (CHLX) (2 mg/mL in H2O) served as a master stock. To obtain the final concentration of 4 μg/ml in the bacterial suspension, initial stock of 16 μg/ml in MHB was prepared and further 2-fold diluted using the following serial dilution scheme: • (1): 8 μg/ml (32 μg/ml, prepared in MHB) • (2): 4 μg/ml (16 μg/ml, prepared in MHB) • (3): 2 μg/ml (8 μg/ml, dilution in MHB) • (4): 1 μg/ml (4 μg/ml, dilution in MHB) • (5): 0.5 μg/ml (2 μg/ml, dilution in MHB) • (6): 0.25 μg/ml (1 μg/ml, dilution in MHB) • 3. Preparation of VRE. Before the experiment, the VRE bacterial suspension (incubated overnight) is diluted 100× in TSB in 4 mL of TSB and grown at 37 C under agitation 200 rpm until OD600 reaches 0.08 to 0.16. This corresponds to the cell density […]. 100 μl of the bacterial solution (OD600 ranging from 0.08 to 0.16) is added to 9 900 μL of Mueller-Hinton Broth (MHB) (dilution 1:100). • 4. Preparation of a 96-well plate. 100 μL of bacteria (diluted 1:100 in MHB from the point 3) is added in each well of the plate containing 100 μL of the serially diluted APIs alone or in combinations as shown in the p. 2. Bacteria should be added into the 96-well plate within the 30 minutes following the preparation of the bacteria in order to maintain the same number of CFU/mL. Plates are incubated at 37° C. overnight. A condition with MHB medium alone or bacteria without APIs will also be added as the control conditions. Since fluometacyl is dissolved in ethanol, extra conditions are added: MHB with ethanol in order to assess the effect of ethanol on bacterial growth. • Following scheme is applied: • 2 antibacterial compounds: 50 μL of a antimicrobial 1+50 μL of a antimicrobial 2+100 μL of bacterial suspension in MHB • 1 antibacterial compound: 50 μL of a drug 1/2+50 μL of MHB+100 μL of bacterial suspension in MHB • Growth control: 100 μL MHB (+/−Ethanol)+100 μL of bacterial suspension • BLANK: MHB only • 5. CFU counting of the initial challenge inoculum. 10 μL of the solution of the bacteria used as the positive control is diluted in 10 mL of TSB. 100 μL is spread on Tryptic Soy agar (done in triplicate) and incubated at 37° C. overnight • 6. Results. The MIC is the lowest concentration that inhibits completely the visible growth of the bacteria (no turbidity in a well). The OD at 600 nm is also recorded for each well as back-up data.
Synergy evaluation resulting from the comparison between activity of the combination of the antimicrobial compounds and their individual activities was represented as the Fractional Inhibitory Concentration (FIC) index value. […]

The next data set relates to Candida albicans (CA). The data set can be described thus: MIC in monotherapy and in combination therapy (ISO standard 20776-1). The format is cell-based. An excerpt: (§1) Summary of MIC Values for Fluometacyl (FLC)+Chlorhexidine (CHX) Tested Against MRSA, Enterococcus faecalis (VRE), Pseudomonas aeruginosa (PA) and Candida albicans (CA).
(§2) By Minimum Inhibitory Concentration (MIC) one means the lowest concentration of antimicrobial that prevents visible growth of a microorganism (determined according to ISO standard 20776-1).
(§3) This finds an implication in combining many known antimicrobials together rather than discovering new chemical entities.

For data set [2], the system named is Pseudomonas aeruginosa (PA). The description is as above. The format is cell-based.
From the text: as §1, §2, §3

The test system of data set [3] is Staphylococcus aureus (MRSA). The data set is described as above. The format is cell-based.
From the text: as §1, §2, §3

For data set [4] the following is noted: cited from earlier work.
Data set [5] relates to Pseudomonas aeruginosa (ATCC 15442). Briefly: Real-time microcalorimetric measurement of bacterial metabolic activity (heat flow, Calscreener). The format is cell-based. The procedure:
Pseudomonas aeruginosa (ATCC 15442) was grown overnight in TSB (tryptic soy broth) medium, before being diluted 1×10^7 fold in fresh TSB. Subsequently […] aliquots of diluted bacteria suspensions were respectively supplemented with 1, 2, 4, 6, 12 and 24 mg/L of chlorhexidine (digluconate solution, 20% in H2O, Merck). The aqueous solution of chlorhexidine was kept refrigerated according to the manufacturer's technical sheet. Chlorhexidine or mQH2O as a vehicle were added to the bacterial suspensions to obtain the given concentrations followed by a brief vortexing. Bacterial aliquots were then distributed in the dedicated non-activated inserts of a 48-well plate and grown for 24h or more under static conditions at 37 C using Calscreener technology to measure bacterial growth and metabolic activity in Real-Time as described in https://cordis.europa.eu/project/id/784514.
For the study of the combination of chlorhexidine and triafluocyl aforementioned diluted bacterial suspensions were supplemented with either chlorhexidine alone (1, 2, 4, 6, 12 mg/L) or mixed with triafluocyl (20 mg/L, Polpharma). Triafluocyl was stored in absolute ethanol in the refrigerator at a concentration of 3 mg/mL. Triafluocyl, chlorhexidine or both, and ethanol as a vehicle were added to the bacterial suspensions to obtain the given concentrations.
Pseudomonas aeruginosa (ATCC 15442) was grown overnight in TSB (tryptic soy broth) medium, before being diluted 1×10^7 fold in fresh TSB. Subsequently […] aliquots of diluted bacteria suspensions were respectively supplemented with […] of alexidine dihydrochloride (stock solution of 3 mg/mL in ethanol, Merck). […] The stock solutions of alexidine and fluometacyl were kept frozen according to the manufacturer's technical sheet. Alexidine alone or with fluometacyl, and ethanol as a vehicle were added to the bacterial suspensions to obtain the given concentrations followed by a brief vortexing. […]

In data set [6] the test system is Staphylococcus aureus (MRSA, ATCC 6538). The data set is described as above. The format is cell-based. As to the method:
Staphylococcus aureus (MRSA, ATCC 6538) was grown overnight in TSB (tryptic soy broth) medium, before being diluted 1×10^6 fold in fresh TSB. Subsequently […] aliquots of diluted bacteria suspensions were respectively supplemented with 1 and 2 mg/L of chlorhexidine (digluconate solution, 20% in H2O, Merck). […] The aqueous solution of chlorhexidine and the ethanol-based solution of triafluocyl were kept refrigerated. Chlorhexidine, triafluocyl or both, and ethanol as a vehicle were added to the bacterial suspensions to obtain the given concentrations followed by a brief vortexing. Bacterial aliquots were then distributed in the dedicated non-activated inserts of a 48-well plate and grown for 24 h or more under static conditions at 37 C using Calscreener technology to measure bacterial growth and metabolic activity in Real-Time as described in https://cordis.europa.eu/project/id/784514.
Staphylococcus aureus (MRSA, ATCC 6538) was grown overnight in TSB (tryptic soy broth) medium, before being diluted 1×10^6 fold in fresh TSB. Subsequently […] aliquots of diluted bacteria suspensions were respectively supplemented with 0.25, 0.5 and 1 μg/mL of chlorhexidine (digluconate solution, 20% in H2O, Merck) or alexidine dihydrochloride (stock solution of 3 mg/mL in ethanol, Merck).
The aqueous solution of chlorhexidine and the ethanol-based solution of alexidine were kept refrigerated. Chlorhexidine, alexidine, and ethanol as a vehicle were added to the bacterial suspensions to obtain the given concentrations followed by a brief vortexing. Bacterial aliquots were then distributed in the dedicated non-activated inserts of a 48-well plate and grown for 24 h or more under static conditions at 37 C using Calscreener technology to measure bacterial growth and metabolic activity in Real-Time as described in https://cordis.europa.eu/project/id/784514.
Staphylococcus aureus (MRSA, ATCC 6538) was grown overnight in TSB (tryptic soy broth) medium, before being diluted 1×10^6 fold in fresh TSB. Subsequently […] aliquots of diluted bacteria suspensions were respectively supplemented with […] of alexidine dihydrochloride (stock solution of 3 mg/mL in ethanol, Merck). […] The ethanol-based solutions of alexidine and fluometacyl were stored at −20° C.
Alexidine alone or with fluometacyl, and ethanol as a vehicle were added to the bacterial suspensions to obtain the given concentrations followed by a brief vortexing. Bacterial aliquots were then distributed in the dedicated non-activated inserts of a 48-well plate and grown for 24 h or more under static conditions at 37 C using Calscreener technology to measure bacterial growth and metabolic activity in Real-Time.

Where [7] appears, read: MIC combination / MIC monotherapy.

The MIC is the smallest concentration in the dilution series that meets the test's criterion for growth inhibition.

Consider `CCCSc1nc(N[C@@H]2C[C@H]2c2ccc(F)c(F)c2)c2nnn([C@@H]3C[C@H](O)[C@@H](O)[C@H]3O)c2n1` [Fluometacyl, (1S,2R,3S,4R)-4-[7-[[(1R,2S)-2-(3,4-Difluorophenyl)cyclopropyl]amino]-5-(propylthio)-3H-1,2,3-triazolo[4,5-d]pyrimidin-3-yl]-1,2,3-cyclopentanetriol], for which the minimum inhibitory concentration (MIC) in data set [1] (Enterococcus faecalis, antimicrobial alone, read-out: MIC Monotherapy (X)) is 20 mg/mL; in data set [3] (Staphylococcus aureus, MRSA, antimicrobial alone, read-out: MIC Monotherapy (X)), 20 mg/mL. The “Ratio Y/X” value was 0.125-0.5 in data set [1] (setting [7]) and 0.25-0.5 in data set [3] (setting [7]). The “MIC combination dual therapy (Y)” value is 2.5 to 10 mg/mL in data set [1] (in FLC + CHX combination), 20 mg/mL in the data set on Candida albicans (CA) (in FLC + CHX combination), 20 mg/mL in data set [2] (in FLC + CHX combination) and 5 to 10 mg/mL in data set [3] (in FLC + CHX combination). In addition, the “MIC Monotherapy (X)” value (in the data set on Candida albicans (CA) (antimicrobial alone); in data set [2] (antimicrobial alone)) was “Not detected” in each case. In addition, the “solubility in an aqueous environment or aqueous medium” value in data set [4] is “generally not soluble”.
As for `CCCSc1nc(N[C@@H]2C[C@H]2c2ccc(F)c(F)c2)c2nnn([C@@H]3C[C@H](OCCO)[C@@H](O)[C@H]3O)c2n1` [Triafluocyl, (1S,2S,3R,5S)-3-[7-[(1R,2S)-2-(3,4-difluorophenyl)cyclopropylamino]-5-(propylthio)-3H-[1,2,3]-triazolo[4,5-d]pyrimidin-3-yl]-5-(2-hydroxyethoxy)-1,2-cyclopentanediol], the figures for the “effect on growth (heat flow)” value in data set [5] (triafluocyl 20 mg/L alone) and in data set [6] (triafluocyl 1 mg/L alone) were “does not inhibit the growth” and “doesn't affect the growth”, respectively. For the same compound, the “solubility in an aqueous environment or aqueous medium” value in data set [4] is reported as “generally not soluble”.
Take alexidine: the “effect on growth (heat flow)” value is “strong growth inhibition” in data set [5] (alexidine 4 mg/mL alone) and “full growth inhibition” in data set [6] (alexidine 1 mg/mL alone). The “effect on metabolic activity (heat flow), compared with chlorhexidine” value in data set [6] (alexidine 0.25 and 0.5 mg/mL alone) is “noticeably stronger effect”.
